Measurements: patent US12606548B2, “Fungicidal oxadiazoles” (FMC CORPORATION, priority 2019, dated 2026)

Assays:
[1] = test system: Puccinia recondita f. sp. tritici; assay: Test C: test suspension sprayed on wheat seedlings, inoculated next day with Puccinia recondita f. sp. tritici (wheat leaf rust), visual disease rating; format: in vivo; settings: for Test C rating (% disease control): relative to the controls
Excerpt: General protocol for preparing test suspensions for Tests A-C: the test compounds were first dissolved in acetone in an amount equal to 3% of the final volume and then suspended at the desired concentration (in ppm) in acetone and purified water (50/50 mix by volume) containing 250 ppm of the surfactant PEG400 (polyhydric alcohol esters). The resulting test suspensions were then used in Tests A-C. The test suspension was sprayed to the point of run-off on wheat seedlings. The following day the seedlings were inoculated with a spore suspension of Puccinia recondita f. sp. tritici; (the causal agent of wheat leaf rust) and incubated in a saturated atmosphere at 20° C., for 24 h, and then moved to a growth chamber at 20° C., for 6 days, after which time visual disease ratings were made. […] A dash (-) indicates the compound was not tested. The test suspensions were sprayed at the concentration listed in the column “Rate in ppm”, unless otherwise indicated.

Phakopsora pachyrhizi = assay: Test A: test suspension sprayed on soybean seedlings, inoculated next day with Phakopsora pachyrhizi (Asian soybean rust), visual disease rating; format: in vivo; settings: for Test A rating (% disease control): relative to the controls
Excerpt: General protocol for preparing test suspensions for Tests A-C: the test compounds were first dissolved in acetone in an amount equal to 3% of the final volume and then suspended at the desired concentration (in ppm) in acetone and purified water (50/50 mix by volume) containing 250 ppm of the surfactant PEG400 (polyhydric alcohol esters). The resulting test suspensions were then used in Tests A-C. The test suspension was sprayed to the point of run-off on soybean seedlings. The following day the seedlings were inoculated with a spore suspension of Phakopsora pachyrhizi (the causal agent of Asian soybean rust) and incubated in a saturated atmosphere at 22° C., for 24 h and then moved to a growth chamber at 22° C., for 8 days, after which time visual disease ratings were made. […] A dash (-) indicates the compound was not tested. The test suspensions were sprayed at the concentration listed in the column “Rate in ppm”, unless otherwise indicated.

Compound | Test C rating (% disease control) ([1]; Rate 10 ppm test suspension) [%] | Test A rating (% disease control) (Phakopsora pachyrhizi; Rate 10 ppm test suspension) [%] | other results
1-[[4-[5-(trifluoromethyl)-1,2,4-oxadiazol-3-yl]phenyl]methyl]-1H-pyrazolo[3,4-b]pyridine [Compound 147] |  |  | Test C disease control rating ([1]; 10 ppm test suspension): 68%; Test A disease control rating (Phakopsora pachyrhizi; 10 ppm test suspension): 100%
3-[5-[(4-bromo-1H-pyrazol-1-yl)methyl]-2-thienyl]-5-(trifluoromethyl)-1,2,4-oxadiazole [Compound 71] |  |  | Test C disease control rating ([1]; 10 ppm test suspension): 74%; Test A disease control rating (Phakopsora pachyrhizi; 10 ppm test suspension): 100%
6-chloro-2-[[4-[5-(trifluoromethyl)-1,2,4-oxadiazol-3-yl]phenyl]methyl]-3(2H)-pyridazinone [Compound 4] |  |  | Test C disease control rating ([1]; 50 ppm test suspension): 100%; Test A disease control rating (Phakopsora pachyrhizi; 50 ppm test suspension): 100%
COc1ccc(C(O)c2ccc(-c3noc(C(F)(F)F)n3)cc2)cc1 (racemic) [compound 309] |  |  | Test C disease control rating ([1]; 50 ppm test suspension): 68%; Test A disease control rating (Phakopsora pachyrhizi; 50 ppm test suspension): 100%
CCOC(=O)C1=NOC(Cc2ccc(-c3noc(C(F)(F)F)n3)s2)C1 (racemic) [compound 366] |  |  | Test C disease control rating ([1]; 50 ppm test suspension): 100%; Test A disease control rating (Phakopsora pachyrhizi; 50 ppm test suspension): 100%
O=C(O)C1=NOC(Cc2ccc(-c3noc(C(F)(F)F)n3)s2)C1 (racemic) [compound 367] |  |  | Test C disease control rating ([1]; 50 ppm test suspension): 67%; Test A disease control rating (Phakopsora pachyrhizi; 50 ppm test suspension): 96%
CNC(=O)C1=NOC(Cc2ccc(-c3noc(C(F)(F)F)n3)s2)C1 (racemic) [compound 368] |  |  | Test C disease control rating ([1]; 50 ppm test suspension): 100%; Test A disease control rating (Phakopsora pachyrhizi; 50 ppm test suspension): 100%
CCNC(=O)C1=NOC(Cc2ccc(-c3noc(C(F)(F)F)n3)s2)C1 (racemic) [compound 369] |  |  | Test C disease control rating ([1]; 50 ppm test suspension): 100%; Test A disease control rating (Phakopsora pachyrhizi; 50 ppm test suspension): 100%
C#CCNC(=O)C1=NOC(Cc2ccc(-c3noc(C(F)(F)F)n3)s2)C1 (racemic) [compound 429] |  |  | Test C rating (% disease control) ([1]; Rate 50 ppm test suspension): 100%; Test A rating (% disease control) (Phakopsora pachyrhizi; Rate 50 ppm test suspension): 100%
CCN(CC)C(=O)C1=NOC(Cc2ccc(-c3noc(C(F)(F)F)n3)s2)C1 (racemic) [compound 430] |  |  | Test C rating (% disease control) ([1]; Rate 50 ppm test suspension): 100%; Test A rating (% disease control) (Phakopsora pachyrhizi; Rate 50 ppm test suspension): 100%
CN(C)C(=O)C1=NOC(Cc2ccc(-c3noc(C(F)(F)F)n3)s2)C1 (racemic) [compound 460] |  |  | Test C rating (% disease control) ([1]; Rate 50 ppm test suspension): 99%; Test A rating (% disease control) (Phakopsora pachyrhizi; Rate 50 ppm test suspension): 100%
COCCNC(=O)C1=NOC(Cc2ccc(-c3noc(C(F)(F)F)n3)s2)C1 (racemic) [compound 461] |  |  | Test C rating (% disease control) ([1]; Rate 50 ppm test suspension): 100%; Test A rating (% disease control) (Phakopsora pachyrhizi; Rate 50 ppm test suspension): 100%
CCCOC(=O)c1cnn(C(C)c2ccc(-c3noc(C(F)(F)F)n3)s2)c1 (racemic) [compound 493] | 100 | 100 | 
FC(F)(F)c1nc(-c2ccc(Cn3ccc4ncccc43)cc2)no1 [Compound 136, 1-[[4-[5-(trifluoromethyl)-1,2,4-oxadiazol-3-yl]phenyl]methyl]-1H-pyrrolo[3,2-h]pyridine] |  |  | Test C disease control rating ([1]; 10 ppm test suspension): 68%; Test C disease control rating ([1]; 50 ppm test suspension): 94%; Test A disease control rating (Phakopsora pachyrhizi; 10 ppm test suspension): 100%; Test A disease control rating (Phakopsora pachyrhizi; 50 ppm test suspension): 100%
COC(=O)c1ccc2c(c1)nnn2Cc1ccc(-c2noc(C(F)(F)F)n2)cc1 [compound 22] |  |  | Test C disease control rating ([1]; 10 ppm test suspension): 96%; Test A disease control rating (Phakopsora pachyrhizi; 10 ppm test suspension): 100%
CCOC(=O)c1cc(C)n(Cc2ccc(-c3noc(C(F)(F)F)n3)cc2)n1 [compound 110] |  |  | Test C disease control rating ([1]; 10 ppm test suspension): 91%; Test A disease control rating (Phakopsora pachyrhizi; 10 ppm test suspension): 100%
COCCNC(=O)c1cc(C)n(Cc2ccc(-c3noc(C(F)(F)F)n3)cc2)n1 [compound 183] |  |  | Test C disease control rating ([1]; 10 ppm test suspension): 100%; Test A disease control rating (Phakopsora pachyrhizi; 10 ppm test suspension): 100%
COC(=O)c1cnn(Cc2ccc(-c3noc(C(F)(F)F)n3)s2)c1 [compound 188] |  |  | Test C disease control rating ([1]; 10 ppm test suspension): 100%; Test A disease control rating (Phakopsora pachyrhizi; 10 ppm test suspension): 100%
O=C(NCCCl)c1coc(Cc2ccc(-c3noc(C(F)(F)F)n3)cc2)n1 [compound 204] |  |  | Test C disease control rating ([1]; 10 ppm test suspension): 100%; Test A disease control rating (Phakopsora pachyrhizi; 10 ppm test suspension): 100%
CN(CC#N)C(=O)c1cnn(Cc2ccc(-c3noc(C(F)(F)F)n3)cc2)c1 [compound 379] | 97 | 100 | 
CCONC(=O)c1cnn(Cc2ccc(-c3noc(C(F)(F)F)n3)cc2)c1 [compound 380] | 100 | 100 | 
Nc1cnn(Cc2ccc(-c3noc(C(F)(F)F)n3)cc2)c1 [compound 381] | 0 | 0 | 
O=[N+]([O-])c1cnn(Cc2ccc(-c3noc(C(F)(F)F)n3)cc2)c1 [compound 382] | 96 | 100 | 
FC(F)(F)c1nc(-c2ccc(Cn3cc(I)cn3)cc2)no1 [compound 383] | 68 | 71 | 
CCON=Cc1cnn(Cc2ccc(-c3noc(C(F)(F)F)n3)cc2)c1 [compound 384] | 100 | 100 | 

Compound | Test C rating (% disease control) ([1]; Rate 10 ppm test suspension) [%] | Test A rating (% disease control) (Phakopsora pachyrhizi; Rate 10 ppm test suspension) [%] | other results
CCCON=Cc1cnn(Cc2ccc(-c3noc(C(F)(F)F)n3)cc2)c1 [compound 385] | 100 | 100 | 
C=CCON=Cc1cnn(Cc2ccc(-c3noc(C(F)(F)F)n3)cc2)c1 [compound 386] | 100 | 100 | 
C#CCON=Cc1cnn(Cc2ccc(-c3noc(C(F)(F)F)n3)cc2)c1 [compound 387] | 99 | 100 | 
CC(C)ON=Cc1cnn(Cc2ccc(-c3noc(C(F)(F)F)n3)cc2)c1 [compound 388] | 100 | 100 | 
CC(=O)NN=Cc1cnn(Cc2ccc(-c3noc(C(F)(F)F)n3)cc2)c1 [compound 389] | 100 | 100 | 
CS(=O)(=O)CCOC(=O)c1cnn(Cc2ccc(-c3noc(C(F)(F)F)n3)cc2)c1 [compound 390] | 100 | 100 | 
CCOC(CC(=O)c1cnn(Cc2ccc(-c3noc(C(F)(F)F)n3)cc2)c1)OCC [compound 391] | 100 | 100 | 
CN(C)C(=O)c1cnn(CCCc2ccc(-c3noc(C(F)(F)F)n3)cc2)c1 [compound 406] | 93 | 100 | 
Nc1ncnc2c1cnn2Cc1ccc(-c2noc(C(F)(F)F)n2)cc1 [compound 407] | 100 | 100 | 
FC(F)(F)c1nc(-c2ccc(Cn3ncc4ncccc43)cc2)no1 [compound 408] | 100 | 100 | 
FC(F)(F)c1nc(-c2ccc(Cn3cc4ncccc4n3)cc2)no1 [compound 409] | 100 | 100 | 
CCCCOC(=O)c1cnn(Cc2ccc(-c3noc(C(F)(F)F)n3)cc2)c1 [compound 410] | 100 | 100 | 
O=C(OCC1CC1)c1cnn(Cc2ccc(-c3noc(C(F)(F)F)n3)cc2)c1 [compound 411] | 100 | 100 | 
O=C(OCc1ccccc1)c1cnn(Cc2ccc(-c3noc(C(F)(F)F)n3)cc2)c1 [compound 412] | 100 | 100 | 
FC(F)(F)c1nc(-c2ccc(Cn3ncc4cc(Br)cnc43)cc2)no1 [compound 413] | 68 | 100 | 
FC(F)(F)c1nc(-c2ccc(Cn3cc4cc(Br)cnc4n3)cc2)no1 [compound 414] | 100 | 100 | 
CNC(=O)c1cnn(CCCc2ccc(-c3noc(C(F)(F)F)n3)cc2)c1 [compound 415] | 96 | 100 | 
CCCOC(=O)c1cnn(Cc2ccc3cc(-c4noc(C(F)(F)F)n4)ccc3c2)c1 [compound 416] |  |  | Test C rating (% disease control) ([1]; Rate 50 ppm test suspension): 0%; Test A rating (% disease control) (Phakopsora pachyrhizi; Rate 50 ppm test suspension): 77%
N#Cc1cccn(Cc2ccc(-c3noc(C(F)(F)F)n3)cc2)c1=O [compound 417] | 100 | 100 | 
CCOC(=O)c1cncn(Cc2ccc(-c3noc(C(F)(F)F)n3)cc2)c1=O [compound 418] | 99 | 100 | 
CCOC(=O)c1cn(Cc2ccc(-c3noc(C(F)(F)F)n3)cc2)c(=O)cn1 [compound 419] | 99 | 96 | 
COC(=O)c1ccc(=O)n(Cc2ccc(-c3noc(C(F)(F)F)n3)cc2)c1 [compound 420] | 100 | 100 | 
COc1ccn(Cc2ccc(-c3noc(C(F)(F)F)n3)cc2)c(=O)c1 [compound 421] | 100 | 100 | 
COC(=O)c1cccn(Cc2ccc(-c3noc(C(F)(F)F)n3)cc2)c1=O [compound 422] | 93 | 90 | 
